One data set has as its system MDR1 (P-gp). Kind of data set: Efflux ratio of permeability from basolateral to apical side to apical to basolateral side of dog MDCK cells expressing human MDR1. Type of data set: ADME, cell-based, Canis lupus familiaris.
Conditions: not given
T1 sequence (P56817 whole entry): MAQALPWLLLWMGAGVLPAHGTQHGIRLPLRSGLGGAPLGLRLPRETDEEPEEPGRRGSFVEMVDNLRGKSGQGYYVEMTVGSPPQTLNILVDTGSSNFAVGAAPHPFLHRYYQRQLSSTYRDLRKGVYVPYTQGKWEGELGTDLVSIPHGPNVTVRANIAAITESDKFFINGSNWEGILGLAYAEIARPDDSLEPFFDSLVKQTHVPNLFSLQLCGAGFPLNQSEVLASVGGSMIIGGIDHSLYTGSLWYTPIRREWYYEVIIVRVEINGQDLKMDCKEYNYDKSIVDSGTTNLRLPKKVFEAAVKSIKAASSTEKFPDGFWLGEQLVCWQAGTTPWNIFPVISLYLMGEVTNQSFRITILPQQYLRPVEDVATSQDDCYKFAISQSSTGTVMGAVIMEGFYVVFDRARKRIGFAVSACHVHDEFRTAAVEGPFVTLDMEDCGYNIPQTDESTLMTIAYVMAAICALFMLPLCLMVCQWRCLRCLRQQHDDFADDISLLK
Turning to `CCCOCc1cccc(C[C@@H]2CS(=O)(=O)C[C@H](NCc3cccc(C(C)C)c3)[C@H]2O)c1` (racemic), the efflux ratio (commonly the permeability from basolateral to apical divided by that in the opposite direction, in the common usage) came out at 1.8.

Turning to `CC(C)c1cccc(CN[C@H]2CS(=O)(=O)C[C@@H](Cc3ccc(O)c(CCO)c3)[C@@H]2O)c1`, the efflux ratio is 32.

On to `CC(C)(C)c1cccc(CN[C@H]2CS(=O)(=O)C[C@@H](Cc3ccc(O)c(Br)c3)[C@@H]2O)c1`, for which the efflux ratio was determined as 2.1.

On to `CC(C)c1cccc(CN[C@H]2CS(=O)(=O)C[C@@H](Cc3ccccc3)[C@@H]2O)c1` (racemic), for which the efflux ratio came to 1.2.

The test system of another data set is MDR1 (P-gp). Description: Permeability from basolateral to apical side in dog MDCK cells expressing human MDR-1 gene. Type of data set: ADME, cell-based, Canis lupus familiaris. Particulars: read-out: permeability.
Turning to `CCCOCc1cccc(C[C@@H]2CS(=O)(=O)C[C@H](NCc3cccc(C(C)C)c3)[C@H]2O)c1` (racemic), the Papp B→A is 13 ×10⁻⁶ cm/s.

For the molecule `CC(C)c1cccc(CN[C@H]2CS(=O)(=O)C[C@@H](Cc3ccc(O)c(CCO)c3)[C@@H]2O)c1`, the Papp B→A was 28 ×10⁻⁶ cm/s.

Regarding `CC(C)(C)c1cccc(CN[C@H]2CS(=O)(=O)C[C@@H](Cc3ccc(O)c(Br)c3)[C@@H]2O)c1`, the Papp B→A turned out to be 16 ×10⁻⁶ cm/s.

In the case of `CC(C)c1cccc(CN[C@H]2CS(=O)(=O)C[C@@H](Cc3ccccc3)[C@@H]2O)c1` (racemic), the Papp B→A worked out at 24 ×10⁻⁶ cm/s.

System in another data set: not listed separately
Kind of data set: Dissociation constant, pKa of the compound.
Conditions: not given
Type of data set: physicochemical.
As for `O=S1(=O)C[C@@H](Cc2ccc(O)c(Br)c2)[C@H](O)[C@@H](NCc2cccc(C3CC3)c2)C1`, the pKa – broadly, the negative logarithm of the acid dissociation constant – was 5.7.

`CC(C)c1cccc(CN[C@H]2COC[C@@H](Cc3ccc(O)c(Br)c3)[C@@H]2O)c1` had a pKa of 7.1.

In another data set the test system is MDR1 (P-gp). Description: Permeability from apical to basolateral side in dog MDCK cells expressing human MDR-1 gene. Type of data set: ADME, cell-based, Canis lupus familiaris. Particulars: read-out: permeability.
For `CCCOCc1cccc(C[C@@H]2CS(=O)(=O)C[C@H](NCc3cccc(C(C)C)c3)[C@H]2O)c1` (racemic), the Papp A→B amounted to 7 ×10⁻⁶ cm/s.

For the molecule `CC(C)c1cccc(CN[C@H]2CS(=O)(=O)C[C@@H](Cc3ccc(O)c(CCO)c3)[C@@H]2O)c1`, the Papp A→B amounted to 0.9 ×10⁻⁶ cm/s.

As for `CC(C)(C)c1cccc(CN[C@H]2CS(=O)(=O)C[C@@H](Cc3ccc(O)c(Br)c3)[C@@H]2O)c1`, the Papp A→B is 7.7 ×10⁻⁶ cm/s.

`CC(C)c1cccc(CN[C@H]2CS(=O)(=O)C[C@@H](Cc3ccccc3)[C@@H]2O)c1` (racemic): the Papp A→B is 19 ×10⁻⁶ cm/s.

System in a further data set: not listed separately
Kind of data set: Metabolic stability in rat liver microsomes assessed as half life.
Conditions: not given
Type of data set: ADME, Microsome. On the technique in general: Liver microsomes are vesicles of endoplasmic reticulum, rich in cytochrome P450 enzymes.
Regarding `CC(C)(C)c1cccc(CN[C@H]2CS(=O)(=O)C[C@@H](Cc3ccc(O)c(Br)c3)[C@@H]2O)c1`, the half-life (usually the time needed for the level to fall by half in the phase considered) is 6 min.

A further data set has as its target T1, Beta-secretase 1 (Homo sapiens, UniProt P56817). Description: Inhibition of human BACE-1-mediated amyloid beta 40 release in APP-transfected […] cells. Type of data set: cell-based.
Conditions: not given
Consider `CC(C)(C)c1cccc(CN[C@H]2CS(=O)(=O)C[C@@H](Cc3ccc(O)c(Br)c3)[C@@H]2O)c1`, for which half-maximal inhibition (IC50) was put at 0.55 µM.

Turning to `CC(C)Oc1cccc(CN[C@H]2CS(=O)(=O)C[C@@H](Cc3ccc(O)c(Br)c3)[C@@H]2O)c1`, inhibition was half-maximal at 8.5 µM (IC50).

Another data set concerns Plasma. Kind of data set: Drug level in plasma of mouse at 2 umol/kg, iv. Type of data set: ADME. Particulars: read-out: Drug uptake.
In the case of `CC(C)(C)c1cccc(CN[C@H]2CS(=O)(=O)C[C@@H](Cc3ccc(O)c(Br)c3)[C@@H]2O)c1`, the concentration was 320 nM.

In the next data set the target is T1, Beta-secretase 1. Description: Inhibition of human BACE-1.
Conditions: not given
With `CC(C)c1cccc(CN[C@H]2COC[C@@H](Cc3ccc(O)c(Br)c3)[C@@H]2O)c1`, the IC50 (in general, the point on the concentration scale where inhibition reaches its midpoint) was found to be 55 µM.

Regarding `Cc1cccc(Cc2cc(C[C@@H]3CS(=O)(=O)C[C@H](NCc4cccc(C(C)C)c4)[C@H]3O)ccc2O)c1` (racemic), inhibition was half-maximal at 6.2 µM (IC50).

In turn, `O=S1(=O)C[C@@H](Cc2ccc(O)c(Br)c2)[C@H](O)[C@@H](NCc2ccccc2)C1` had an IC50 of 66 µM.

Molecule `CCCOCc1cccc(C[C@@H]2CS(=O)(=O)C[C@H](NCc3cccc(C(C)C)c3)[C@H]2O)c1` (racemic) returned an IC50 of 1.1 µM.

Take `CC(C)c1cccc(CN[C@H]2CS(=O)(=O)C[C@@H](Cc3ccc(O)c(CCO)c3)[C@@H]2O)c1`: the IC50 turned out to be 0.99 µM.

Regarding `CC(C)(C)c1cccc(CN[C@H]2CS(=O)(=O)C[C@@H](Cc3ccc(O)c(Br)c3)[C@@H]2O)c1`, it took 0.055 µM to reach half-maximal inhibition (IC50).

With `CC(C)c1cccc(CN[C@H]2CS(=O)(=O)C[C@@H](Cc3ccccc3)[C@@H]2O)c1` (racemic), the IC50 stood at 1.1 µM.

With `N[C@H]1CS(=O)(=O)C[C@@H](Cc2ccc(O)c(Br)c2)[C@@H]1O`, the IC50 is more than 100 µM.

Turning to `O=S1(=O)C[C@@H](Cc2ccc(O)c(Br)c2)[C@H](O)[C@@H](NCc2cc(Cl)cc(Cl)c2)C1`, 4.2 µM corresponded to half-maximal inhibition (IC50).

In turn, `CC(C)c1ccnc(CN[C@H]2CS(=O)(=O)C[C@@H](Cc3ccc(O)c(Br)c3)[C@@H]2O)c1` showed an IC50 of 4.3 µM.

Take `CC(C)Oc1cccc(CN[C@H]2CS(=O)(=O)C[C@@H](Cc3ccc(O)c(Br)c3)[C@@H]2O)c1`: half-maximal inhibition (IC50) was put at 1.4 µM.

In a further data set the target is Cathepsin D (Homo sapiens, UniProt P07339). Description: Inhibition of human cathepsin D.
Sequence of Cathepsin D (P07339 65-162 limits assumed): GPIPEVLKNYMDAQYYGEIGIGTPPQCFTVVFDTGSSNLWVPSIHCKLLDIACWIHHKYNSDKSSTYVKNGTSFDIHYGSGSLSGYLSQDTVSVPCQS
Sequence of Cathepsin D (P07339 169-412 limits assumed): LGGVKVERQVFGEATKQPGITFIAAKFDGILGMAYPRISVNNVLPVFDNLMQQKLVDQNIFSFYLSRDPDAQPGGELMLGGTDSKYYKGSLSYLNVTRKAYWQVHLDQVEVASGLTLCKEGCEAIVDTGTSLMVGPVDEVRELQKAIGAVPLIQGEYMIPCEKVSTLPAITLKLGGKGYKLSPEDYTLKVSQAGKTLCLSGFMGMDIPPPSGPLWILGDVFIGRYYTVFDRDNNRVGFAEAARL
Conditions: not given
The molecule `Cc1cccc(Cc2cc(C[C@@H]3CS(=O)(=O)C[C@H](NCc4cccc(C(C)C)c4)[C@H]3O)ccc2O)c1` (racemic) returned an IC50 of 7.1 µM.

`CCCOCc1cccc(C[C@@H]2CS(=O)(=O)C[C@H](NCc3cccc(C(C)C)c3)[C@H]2O)c1` (racemic) displayed an IC50 of 0.9 µM.

In turn, `CC(C)c1cccc(CN[C@H]2CS(=O)(=O)C[C@@H](Cc3ccc(O)c(CCO)c3)[C@@H]2O)c1` came in with a concentration for half-maximal inhibition (IC50) of 1.7 µM.

`CC(C)(C)c1cccc(CN[C@H]2CS(=O)(=O)C[C@@H](Cc3ccc(O)c(Br)c3)[C@@H]2O)c1` returned an IC50 of 0.42 µM.

Turning to `CC(C)c1cccc(CN[C@H]2CS(=O)(=O)C[C@@H](Cc3ccccc3)[C@@H]2O)c1` (racemic), the midpoint of inhibition, the IC50, lay at 1.9 µM.

Consider `CC(C)Oc1cccc(CN[C@H]2CS(=O)(=O)C[C@@H](Cc3ccc(O)c(Br)c3)[C@@H]2O)c1`, for which the IC50 was determined as 0.67 µM.

The next data set has as its system Brain. Kind of data set: Drug level in brain of mouse at 2 umol/kg, iv. Type of data set: ADME, organism-based. Particulars: in vivo, read-out: Drug uptake.
In the case of `CC(C)(C)c1cccc(CN[C@H]2CS(=O)(=O)C[C@@H](Cc3ccc(O)c(Br)c3)[C@@H]2O)c1`, the concentration was determined as 180 nM.

Source of the values: ChEMBL document CHEMBL1759891, “Structure based design, synthesis and SAR of cyclic hydroxyethylamine (HEA) BACE-1 inhibitors” (Bioorg Med Chem Lett, 2011).
